Data published in ChEMBL document CHEMBL3864167, “Structure-Activity Relationship, Drug Metabolism and Pharmacokinetics Properties Optimization, and in Vivo Studies of New Brain Penetrant Triple T-Type Calcium Channel Blockers” (J Med Chem, 2016).
≈ marks a conversion by molar mass, not a printed value.

Assays:
[1] = Solubility of the compound at pH 7; assay type: physicochemical; settings: buffer
[2] = Solubility of the compound in fast state simulated intestinal fluid; assay type: ADME; settings: fasted state simulated intestinal fluid (FaSSIF)
[3] = Solubility of the compound in fed state simulated intestinal fluid; assay type: ADME; settings: fed state simulated intestinal fluid (FeSSIF)
[4] = Lipophilicity, logD of compund at pH 7.4; assay type: physicochemical; settings: buffer
[5] = molecular target: Voltage-dependent T-type calcium channel subunit alpha-1G (Homo sapiens, UniProt O43497); test: Channel blocking activity at recombinant human CaV 3.1 channel expressed in HEK293 cells assessed as inhibition of Ca2+ flux preincubated for 3 mins followed by CaCl2 addition by fluo-4 dye-based FLIPR assay; assay type: cell-based
Voltage-dependent T-type calcium channel subunit alpha-1G, sequence (O43497 whole entry): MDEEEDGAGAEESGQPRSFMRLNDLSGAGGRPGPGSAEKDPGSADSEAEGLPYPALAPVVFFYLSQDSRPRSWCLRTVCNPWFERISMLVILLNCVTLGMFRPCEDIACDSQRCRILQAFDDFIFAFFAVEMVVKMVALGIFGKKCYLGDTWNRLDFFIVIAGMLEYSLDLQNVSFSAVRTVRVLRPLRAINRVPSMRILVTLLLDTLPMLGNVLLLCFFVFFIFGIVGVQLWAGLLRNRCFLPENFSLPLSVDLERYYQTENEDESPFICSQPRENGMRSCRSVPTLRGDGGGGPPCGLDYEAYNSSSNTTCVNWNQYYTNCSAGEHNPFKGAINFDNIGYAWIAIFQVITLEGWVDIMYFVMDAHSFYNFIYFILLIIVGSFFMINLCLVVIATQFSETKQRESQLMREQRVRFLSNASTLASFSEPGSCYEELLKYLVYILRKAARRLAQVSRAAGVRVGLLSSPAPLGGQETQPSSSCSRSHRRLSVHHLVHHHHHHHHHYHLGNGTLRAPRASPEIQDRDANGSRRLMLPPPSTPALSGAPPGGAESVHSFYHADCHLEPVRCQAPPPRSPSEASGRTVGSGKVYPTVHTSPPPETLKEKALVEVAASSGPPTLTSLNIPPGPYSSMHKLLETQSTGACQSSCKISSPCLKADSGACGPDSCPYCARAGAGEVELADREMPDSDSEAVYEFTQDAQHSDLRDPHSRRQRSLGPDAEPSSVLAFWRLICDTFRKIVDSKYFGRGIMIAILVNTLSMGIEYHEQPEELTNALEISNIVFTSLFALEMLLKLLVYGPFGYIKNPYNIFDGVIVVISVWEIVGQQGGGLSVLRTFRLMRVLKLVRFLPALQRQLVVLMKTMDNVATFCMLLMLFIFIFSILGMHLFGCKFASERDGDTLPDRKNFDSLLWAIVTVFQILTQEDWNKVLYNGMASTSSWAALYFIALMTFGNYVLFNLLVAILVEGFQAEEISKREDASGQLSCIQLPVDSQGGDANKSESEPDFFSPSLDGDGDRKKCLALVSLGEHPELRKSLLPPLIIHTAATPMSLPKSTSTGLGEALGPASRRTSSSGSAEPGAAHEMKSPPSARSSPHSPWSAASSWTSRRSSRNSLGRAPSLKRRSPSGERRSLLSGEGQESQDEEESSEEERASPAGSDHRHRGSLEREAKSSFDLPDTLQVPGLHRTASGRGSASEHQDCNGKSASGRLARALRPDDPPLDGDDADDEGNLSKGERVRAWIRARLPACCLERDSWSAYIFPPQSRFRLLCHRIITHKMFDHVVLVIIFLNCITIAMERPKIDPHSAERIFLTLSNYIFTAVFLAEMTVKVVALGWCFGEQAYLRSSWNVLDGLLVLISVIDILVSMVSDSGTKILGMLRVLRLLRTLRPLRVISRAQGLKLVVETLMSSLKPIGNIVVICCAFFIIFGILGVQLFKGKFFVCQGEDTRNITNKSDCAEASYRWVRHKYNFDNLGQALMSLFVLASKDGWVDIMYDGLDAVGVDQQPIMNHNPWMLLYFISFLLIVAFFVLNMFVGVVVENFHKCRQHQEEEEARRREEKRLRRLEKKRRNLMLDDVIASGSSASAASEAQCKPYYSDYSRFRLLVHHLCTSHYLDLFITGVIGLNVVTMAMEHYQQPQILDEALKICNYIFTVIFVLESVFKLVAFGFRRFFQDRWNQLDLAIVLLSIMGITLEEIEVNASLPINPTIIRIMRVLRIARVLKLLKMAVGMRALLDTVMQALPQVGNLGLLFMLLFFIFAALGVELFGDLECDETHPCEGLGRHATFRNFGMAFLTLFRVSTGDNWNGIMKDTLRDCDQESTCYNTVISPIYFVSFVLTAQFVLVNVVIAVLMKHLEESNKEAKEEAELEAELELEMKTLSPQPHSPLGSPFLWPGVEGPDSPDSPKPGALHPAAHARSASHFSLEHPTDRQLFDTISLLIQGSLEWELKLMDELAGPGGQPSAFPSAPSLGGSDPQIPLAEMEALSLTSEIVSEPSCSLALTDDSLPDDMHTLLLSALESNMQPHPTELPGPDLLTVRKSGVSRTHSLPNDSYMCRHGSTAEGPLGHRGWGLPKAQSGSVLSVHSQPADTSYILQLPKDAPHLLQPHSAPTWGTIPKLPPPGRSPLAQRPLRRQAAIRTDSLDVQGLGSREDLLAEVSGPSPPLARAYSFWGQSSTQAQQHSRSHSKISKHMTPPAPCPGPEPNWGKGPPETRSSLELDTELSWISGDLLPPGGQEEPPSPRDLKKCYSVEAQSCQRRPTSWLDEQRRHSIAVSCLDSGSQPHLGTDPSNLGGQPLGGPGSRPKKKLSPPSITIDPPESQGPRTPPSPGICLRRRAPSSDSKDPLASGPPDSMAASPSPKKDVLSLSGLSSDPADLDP

[6] = molecular target: Voltage-dependent T-type calcium channel subunit alpha-1H (Homo sapiens, UniProt O95180); test: Channel blocking activity at recombinant human CaV 3.2 channel expressed in HEK293 cells assessed as inhibition of Ca2+ flux preincubated for 3 mins followed by CaCl2 addition by fluo-4 dye-based FLIPR assay; assay type: cell-based
Voltage-dependent T-type calcium channel subunit alpha-1H, sequence (O95180 whole entry): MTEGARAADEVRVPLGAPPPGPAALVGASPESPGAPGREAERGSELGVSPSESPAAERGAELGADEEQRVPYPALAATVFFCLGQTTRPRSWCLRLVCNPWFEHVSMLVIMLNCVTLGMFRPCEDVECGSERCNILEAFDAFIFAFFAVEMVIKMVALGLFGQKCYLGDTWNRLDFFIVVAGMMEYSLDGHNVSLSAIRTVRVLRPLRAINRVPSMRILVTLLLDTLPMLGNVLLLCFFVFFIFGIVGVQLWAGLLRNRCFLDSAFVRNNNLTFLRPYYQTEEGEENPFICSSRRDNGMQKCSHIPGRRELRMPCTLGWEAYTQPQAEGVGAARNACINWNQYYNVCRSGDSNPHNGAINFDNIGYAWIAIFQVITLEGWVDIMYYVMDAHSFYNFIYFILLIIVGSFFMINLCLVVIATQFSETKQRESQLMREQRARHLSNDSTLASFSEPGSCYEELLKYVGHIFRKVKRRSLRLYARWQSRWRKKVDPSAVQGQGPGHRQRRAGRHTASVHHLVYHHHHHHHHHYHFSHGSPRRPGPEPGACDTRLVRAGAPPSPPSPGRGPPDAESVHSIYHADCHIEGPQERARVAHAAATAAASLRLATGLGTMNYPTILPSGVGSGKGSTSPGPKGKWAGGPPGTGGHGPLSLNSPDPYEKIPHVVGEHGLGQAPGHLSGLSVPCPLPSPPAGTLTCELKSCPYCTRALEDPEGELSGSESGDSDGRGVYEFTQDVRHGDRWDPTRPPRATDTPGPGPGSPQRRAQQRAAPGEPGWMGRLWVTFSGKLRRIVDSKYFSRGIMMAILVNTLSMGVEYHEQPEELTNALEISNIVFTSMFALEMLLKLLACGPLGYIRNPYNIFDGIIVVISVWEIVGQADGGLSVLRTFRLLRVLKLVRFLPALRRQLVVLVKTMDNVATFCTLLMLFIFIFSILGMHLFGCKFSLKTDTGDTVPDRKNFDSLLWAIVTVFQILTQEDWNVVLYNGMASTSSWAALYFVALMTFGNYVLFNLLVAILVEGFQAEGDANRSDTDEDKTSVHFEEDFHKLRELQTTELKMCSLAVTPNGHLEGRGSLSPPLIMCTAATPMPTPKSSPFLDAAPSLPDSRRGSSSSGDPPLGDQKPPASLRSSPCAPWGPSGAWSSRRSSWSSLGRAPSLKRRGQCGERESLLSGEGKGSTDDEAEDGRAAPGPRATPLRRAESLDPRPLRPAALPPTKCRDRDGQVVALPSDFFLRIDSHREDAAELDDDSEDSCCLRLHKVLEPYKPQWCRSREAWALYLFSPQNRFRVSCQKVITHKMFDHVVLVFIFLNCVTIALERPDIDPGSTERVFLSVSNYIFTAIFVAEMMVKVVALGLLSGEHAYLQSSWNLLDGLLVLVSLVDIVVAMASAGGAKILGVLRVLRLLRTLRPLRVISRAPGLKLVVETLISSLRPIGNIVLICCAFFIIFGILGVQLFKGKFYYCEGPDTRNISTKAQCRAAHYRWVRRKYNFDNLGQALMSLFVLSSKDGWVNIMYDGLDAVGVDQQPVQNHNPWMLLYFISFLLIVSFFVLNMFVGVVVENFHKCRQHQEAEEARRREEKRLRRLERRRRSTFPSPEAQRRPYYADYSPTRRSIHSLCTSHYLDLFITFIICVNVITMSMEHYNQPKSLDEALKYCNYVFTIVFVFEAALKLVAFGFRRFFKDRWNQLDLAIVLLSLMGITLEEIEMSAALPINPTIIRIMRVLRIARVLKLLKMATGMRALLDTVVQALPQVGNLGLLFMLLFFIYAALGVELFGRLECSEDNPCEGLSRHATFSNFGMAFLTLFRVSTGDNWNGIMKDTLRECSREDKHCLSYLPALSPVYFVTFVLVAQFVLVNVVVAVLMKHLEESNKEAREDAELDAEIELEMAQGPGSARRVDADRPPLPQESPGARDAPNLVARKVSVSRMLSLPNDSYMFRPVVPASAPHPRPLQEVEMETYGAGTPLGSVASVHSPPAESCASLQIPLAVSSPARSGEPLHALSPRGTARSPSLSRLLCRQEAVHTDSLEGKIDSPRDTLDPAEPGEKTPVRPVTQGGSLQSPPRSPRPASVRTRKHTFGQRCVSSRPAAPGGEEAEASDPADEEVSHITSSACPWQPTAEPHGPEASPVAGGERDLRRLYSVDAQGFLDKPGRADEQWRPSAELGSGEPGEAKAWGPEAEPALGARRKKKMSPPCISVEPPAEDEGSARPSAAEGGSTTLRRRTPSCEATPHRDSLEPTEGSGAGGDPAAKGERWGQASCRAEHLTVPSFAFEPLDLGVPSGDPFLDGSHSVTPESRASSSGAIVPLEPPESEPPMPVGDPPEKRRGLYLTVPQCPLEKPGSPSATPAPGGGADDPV

[7] = molecular target: Voltage-dependent T-type calcium channel subunit alpha-1I (Homo sapiens, UniProt Q9P0X4); test: Channel blocking activity at recombinant human CaV 3.3 channel expressed in HEK293 cells assessed as inhibition of Ca2+ flux preincubated for 3 mins followed by CaCl2 addition by fluo-4 dye-based FLIPR assay; assay type: cell-based
[8] = Intrinsic clearance in human liver microsomes at 1 uM up to 15 mins in presence of NADPH by LC-MS-MS analysis; assay type: ADME; settings: read-out: CLH
[9] = Intrinsic clearance in Wistar rat liver microsomes at 1 uM up to 15 mins in presence of NADPH by LC-MS-MS analysis; assay type: ADME; settings: read-out: CLH
MDR1 [10] = test: Apparent permeability from apical side to basolateral side in MDCK1 cells expressing MDR1; assay type: ADME, cell-based, Canis lupus familiaris; settings: dog, MDCK-MDR1
MDR1 [11] = test: Apparent permeability from basolateral side to apical side in MDCK1 cells expressing MDR1; assay type: ADME, cell-based, Canis lupus familiaris; settings: dog, MDCK-MDR1
MDR1 [12] = test: Efflux ratio for apparent permeability in MDCK1 cells expressing MDR1; assay type: ADME, cell-based, Canis lupus familiaris; settings: dog, MDCK-MDR1
[13] = Dissociation constant, pKa of compound; assay type: physicochemical
[14] = Antiepileptic activity in WAG/Rij rat model of generalized nonconvulsive absence like epilepsy implanted with telemetric transmitter assessed as reduction in number of seizures at 100 mg/kg, po administered as single dose at nocturnal active phase measured after 12 hrs by […] analysis relative to control; assay type: functional, organism-based; set-up: scale not given: the % may be the effect or the level left
[15] = (§1) Antiepileptic activity in WAG/Rij rat model of generalized nonconvulsive absence like epilepsy implanted with telemetric transmitter assessed as reduction in number of seizures at 100 mg/kg, po administered as single dose at nocturnal active phase measured after 3 hrs by […] analysis; assay type: functional, organism-based; set-up: scale not given: the % may be the effect or the level left
[16] = as §1, with “cumulated duration” for “number”, “12” for “3”; assay type: functional, organism-based; set-up: scale not given: the % may be the effect or the level left
Cytochrome P450 3A4 = Cytochrome P450 3A4 (Homo sapiens, UniProt P08684); test: Inhibition of CYP3A4 (unknown origin); assay type: ADME
Rattus norvegicus = test: Toxicity in WAG/Rij rat model of generalized nonconvulsive absence like epilepsy at 100 mg/kg, po administered as single dose; assay type: organism-based; settings: in vivo
[17] = Drug level in human liver microsomes treated with (+/-)-1-((3R,5S)-1-benzyl-3,5-dimethyl-2,3-dihydro-1H-benzo[e][1,4]diazepin-4(5H)-yl)-3-methoxypropan-1-one at 10 uM after 30 mins by LC-MS/MS analysis; assay type: ADME; settings: 0.5 h
[18] = Cmax in Wistar rat at 100 mg/kg administered through oral gavage up to 24 hrs by LC-MS-MS analysis; assay type: ADME, organism-based; set-up: dose 100 mg/kg, route oral; settings: in vivo
[19] = Tmax in Wistar rat at 100 mg/kg administered through oral gavage by LC-MS-MS analysis; assay type: ADME, organism-based; settings: in vivo
[20] = AUC in Wistar rat at 100 mg/kg administered through oral gavage up to 24 hrs by LC-MS-MS analysis; assay type: ADME, organism-based; set-up: dose 100 mg/kg, time < 24 hr, route oral; settings: in vivo
[21] = Drug uptake in Wistar rat brain at 100 mg/kg, po after 1 hr by LC-MS/MS analysis; assay type: ADME, organism-based; settings: read-out: Drug uptake
[22] = Drug uptake in Wistar rat plasma at 100 mg/kg, po after 1 hr by LC-MS/MS analysis; assay type: ADME, organism-based
[23] = Ratio of drug level in brain to plasma in Wistar rat at 100 mg/kg, po after 1 hr by LC-MS/MS analysis; assay type: ADME, organism-based
[24] = Unbound brain concentration in Wistar rat at 100 mg/kg, po after 1 hr by LC-MS/MS analysis; assay type: ADME, organism-based; settings: in vivo
[25] = Unbound plasma concentration in Wistar rat at 100 mg/kg, po after 1 hr by LC-MS/MS analysis; assay type: ADME, organism-based; settings: in vivo
[26] = Ratio of unbound brain concentration to unbound plasma concentration in Wistar rat at 100 mg/kg, po after 1 hr by LC-MS/MS analysis; assay type: ADME, organism-based
[27] = Drug uptake in Wistar rat cerebrospinal fluid at 100 mg/kg, po after 1 hr by LC-MS/MS analysis; assay type: ADME, organism-based; settings: read-out: Drug uptake
[28] = Fraction unbound in Wistar rat brain at 100 mg/kg, po after 1 hr by LC-MS/MS analysis; assay type: ADME, organism-based
[29] = Fraction unbound in Wistar rat plasma at 100 mg/kg, po after 1 hr by LC-MS/MS analysis; assay type: ADME, organism-based
[30] = Ratio of unbound brain concentration in Wistar rat to IC50 for recombinant human CaV 3.1 channel expressed in HEK293 cells; assay type: ADME, cell-based
[31] = Ratio of unbound brain concentration in Wistar rat to IC50 for recombinant human CaV 3.2 channel expressed in HEK293 cells; assay type: ADME, cell-based
[32] = Ratio of unbound brain concentration in Wistar rat to IC50 for recombinant human CaV 3.3 channel expressed in HEK293 cells; assay type: ADME, cell-based
[33] = Drug metabolism in human liver microsomes assessed as (+/-)-1-((3R,5S)-3,5-dimethyl-2,3-dihydro-1H-benzo[e][1,4]diazepin-4(5H)-yl)-3-methoxypropan-1-one metabolite formation at 10 uM after 30 mins by LC-MS/MS analysis; assay type: ADME; settings: 0.5 h

Row | Compound | solubility [1] | solubility [2] | solubility [3] | logD [4] | IC50 [5] | IC50 [6] | IC50 [7] | microsomal CLint at 1 µM [8] | microsomal CLint at 1 µM [9] | Papp A→B (MDR1 [10]) | Papp B→A (MDR1 [11]) | efflux ratio (MDR1 [12]) | pKa [13] | other results
1 | C[C@@H]1CN(Cc2ccccc2)c2ccccc2[C@H](C)N1C(=O)NCc1ccccc1 (racemic) | < 1 µg/mL | 6 µg/mL (≈ 15 µM) | 20 µg/mL (≈ 50.1 µM) | > 4.1 | 17 nM | 35 nM | 8 nM | > 1250 µL/min/mg | > 1250 µL/min/mg |  |  |  |  | 
2 | CC(C)CCN1C[C@@H](C)N(C(=O)Nc2cccnc2)[C@@H](C)c2ccncc21 (racemic) | 309 µg/mL (≈ 841 µM) |  |  | 3.2 | 613 nM | 604 nM | 251 nM | 30 µL/min/mg | 496 µL/min/mg | 0.4 ×10⁻⁶ cm/s | 56 ×10⁻⁶ cm/s | 140 | 4.4 to 6.3 | 
3 | C[C@@H]1CN(Cc2ccccc2)c2cnccc2[C@H](C)N1C(=O)NCc1ccccc1 [listing 1 of 2 here] |  |  |  |  |  |  |  |  |  |  |  |  |  | Activity [14]: 50%; Activity [15]: 100%; Activity [16]: 50%
4 | C[C@@H]1CN(Cc2ccccc2)c2cnccc2[C@H](C)N1C(=O)NCc1ccccc1 [listing 2 of 2 here] |  |  |  |  | 138 nM | 102 nM | 11 nM |  |  |  |  |  |  | IC50 (Cytochrome P450 3A4): 23 to 31 nM; Activity (Rattus norvegicus): Non-Toxic
5 | C[C@@H]1CN(Cc2ccccc2)c2cncc(F)c2[C@H](C)N1C(=O)Nc1cccnc1 (racemic) | 177 µg/mL (≈ 437 µM) |  |  | 3.3 | 107 nM | 240 nM | 133 nM | 83 µL/min/mg | 500 µL/min/mg | 0.9 ×10⁻⁶ cm/s | 53.8 ×10⁻⁶ cm/s | 60 | 3.8 to 4.7 | 
6 | COCCC(=O)N1[C@H](C)CNc2ccccc2[C@@H]1C (racemic) |  |  |  |  |  |  |  |  |  |  |  |  |  | Drug metabolism [17]: Metabolite_Detected
7 | C[C@@H]1CN(Cc2ccccc2)c2cnccc2[C@H](C)N1C(=O)NCc1ccccc1 (racemic) | 42 µg/mL (≈ 105 µM) | 89 µg/mL (≈ 222 µM) | 318 µg/mL (≈ 794 µM) | 3.1 | 142 nM | 236 nM | 25 nM | 276 µL/min/mg |  | 16.6 ×10⁻⁶ cm/s | 55.8 ×10⁻⁶ cm/s | 3.4 | 6.2 | Cmax [18]: 5440 ng/mL; Tmax [19]: 30 min; AUC at 24 h [20]: 21800 ng·h/mL; concentration at 1 h [21]: 1600 nM; concentration at 1 h [22]: 6780 nM; BPR [23]: 24%; Drug uptake(free) [24]: 35 nM; Cp(f) [25]: 128 nM; BPR [26]: 27%; concentration at 1 h [27]: 494 nM; fraction unbound at 1 h [28]: 0.022; fraction unbound at 1 h [29]: 0.019; Ratio [30]: 0.25; Ratio [31]: 0.15; Ratio [32]: 1.5
8 | COc1ccc(CNC(=O)N2[C@H](C)CN(CCC(C)C)c3cnccc3[C@@H]2C)cc1 (racemic) | 9 µg/mL (≈ 21.9 µM) |  |  | 4 | 76 nM | 55 nM | 25 nM | 94 µL/min/mg | 885 µL/min/mg | 10.6 ×10⁻⁶ cm/s | 54.5 ×10⁻⁶ cm/s | 5.1 | 6.4 | 
9 | COCCC(=O)N1[C@H](C)CN(Cc2ccccc2)c2ccccc2[C@@H]1C (racemic) | 27 µg/mL (≈ 76.6 µM) | 58 µg/mL (≈ 165 µM) | 195 µg/mL (≈ 553 µM) |  |  |  |  | > 1250 µL/min/mg | > 1250 µL/min/mg |  |  |  |  | Drug metabolism [33]: Metabolite_Detected
